IC50 data for 1 compound are collected here from article PMC7465469, “Inhibition of the Lysophosphatidylinositol Transporter ABCC1 Reduces Prostate Cancer Cell Growth and Sensitizes to Chemotherapy” (Cancers, 2020).

The target of the assay is T1, ABCC1 (Homo sapiens, UniProt P33527).
T1 construct: wild-type ABCC1 (pcDNA3-ABCC1) transiently expressed in HEK293T cells
Briefly: Calcein-AM efflux, two-colour flow cytometry in ABCC1-transfected HEK293T cells. The assay is classed as cell-based.

T1 sequence (P33527 whole entry): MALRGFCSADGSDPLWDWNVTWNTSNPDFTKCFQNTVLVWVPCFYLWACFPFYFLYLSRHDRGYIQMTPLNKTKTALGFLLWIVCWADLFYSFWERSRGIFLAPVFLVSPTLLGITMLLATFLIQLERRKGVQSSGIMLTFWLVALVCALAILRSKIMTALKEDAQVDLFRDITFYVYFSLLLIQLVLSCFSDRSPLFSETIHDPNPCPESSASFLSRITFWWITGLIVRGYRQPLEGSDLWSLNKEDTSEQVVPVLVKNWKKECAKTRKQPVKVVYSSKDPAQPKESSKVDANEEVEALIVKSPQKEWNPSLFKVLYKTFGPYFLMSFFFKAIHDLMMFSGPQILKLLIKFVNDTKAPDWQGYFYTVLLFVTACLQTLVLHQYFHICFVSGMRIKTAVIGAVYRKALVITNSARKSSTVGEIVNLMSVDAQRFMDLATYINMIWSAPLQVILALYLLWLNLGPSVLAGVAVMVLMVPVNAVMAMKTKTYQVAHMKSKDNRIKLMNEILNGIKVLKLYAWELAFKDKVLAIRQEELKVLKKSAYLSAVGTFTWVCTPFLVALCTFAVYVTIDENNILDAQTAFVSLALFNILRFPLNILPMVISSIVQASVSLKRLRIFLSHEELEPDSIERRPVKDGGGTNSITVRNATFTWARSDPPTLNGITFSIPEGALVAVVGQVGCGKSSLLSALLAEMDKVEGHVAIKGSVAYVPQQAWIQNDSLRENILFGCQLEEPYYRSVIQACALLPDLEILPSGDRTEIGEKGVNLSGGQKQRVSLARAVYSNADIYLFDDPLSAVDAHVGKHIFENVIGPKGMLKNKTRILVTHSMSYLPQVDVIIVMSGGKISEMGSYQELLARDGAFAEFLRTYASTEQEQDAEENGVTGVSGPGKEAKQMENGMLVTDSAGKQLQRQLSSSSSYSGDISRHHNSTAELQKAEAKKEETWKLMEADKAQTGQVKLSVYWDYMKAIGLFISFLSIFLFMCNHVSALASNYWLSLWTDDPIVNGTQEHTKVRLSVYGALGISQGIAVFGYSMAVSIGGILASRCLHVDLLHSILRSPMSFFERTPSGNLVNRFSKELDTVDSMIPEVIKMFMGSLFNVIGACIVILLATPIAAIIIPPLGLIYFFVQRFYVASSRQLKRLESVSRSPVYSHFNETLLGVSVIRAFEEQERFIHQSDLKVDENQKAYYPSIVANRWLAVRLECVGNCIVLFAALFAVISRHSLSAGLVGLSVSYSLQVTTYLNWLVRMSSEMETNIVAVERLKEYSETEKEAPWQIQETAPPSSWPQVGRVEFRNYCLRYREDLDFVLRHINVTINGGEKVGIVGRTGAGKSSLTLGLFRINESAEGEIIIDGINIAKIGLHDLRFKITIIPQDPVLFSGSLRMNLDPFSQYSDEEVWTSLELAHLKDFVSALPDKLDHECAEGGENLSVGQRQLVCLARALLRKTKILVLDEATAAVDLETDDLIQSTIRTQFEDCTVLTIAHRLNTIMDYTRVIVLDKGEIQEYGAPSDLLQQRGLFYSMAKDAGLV

Turning to `CC1=C(CC(=O)O)c2cc(F)ccc2/C1=C\c1ccc([S+](C)[O-])cc1` (stereo not shown) [Sulindac], the IC50 was 106 µM.
